Measurements taken from BindingDB's records for doi:10.1021/acsmedchemlett.1c00445 (Janssen Research & Development, 2022).
pIC50: −log10 of the molar value.

Assay: Inhibition of human amyloid beta (1 to 42) in human SKNBE2 cells expressing wild-type amyloid precursor protein hAPP695 incubated for 18 hrs by sandwich ELISA

pIC50	SMILES
8.48	C[C@@]1(c2cc(NC(=O)c3ccc(C#N)cn3)ccc2F)Cn2c(C#N)cnc2C(N)=N1
8.32	Cc1nc(C(=O)Nc2ccc(F)c([C@]3(C)Cn4nc(C#N)cc4C(N)=N3)c2)co1
8.89	COc1cnc(C(=O)Nc2ccc(F)c([C@]3(C)Cn4nc(C#N)cc4C(N)=N3)c2)cn1
8.07	C[C@@]1(c2cc(NC(=O)c3ccc(C#N)cn3)ccc2F)Cn2cc(C#N)nc2C(N)=N1
7.89	C[C@@]1(c2cc(NC(=O)c3ccc(F)cn3)ccc2F)Cn2c(C#N)cnc2C(N)=N1
8.44	C[C@@]1(c2cc(NC(=O)c3ccc(Cl)cn3)ccc2F)Cn2c(C#N)cnc2C(N)=N1
8.20	COc1cnc(C(=O)Nc2ccc(F)c([C@]3(C)Cn4c(C#N)cnc4C(N)=N3)c2)cn1
9.00	C[C@@]1(c2cc(NC(=O)c3ccc(C#N)cn3)ccc2F)Cn2nc(C#N)cc2C(N)=N1
8.59	C[C@@]1(c2cc(NC(=O)c3ccc(F)cn3)ccc2F)Cn2nc(C#N)cc2C(N)=N1
9.00	C[C@@]1(c2cc(NC(=O)c3ccc(OC(F)F)cn3)ccc2F)Cn2nc(C#N)cc2C(N)=N1
8.60	C[C@@]1(c2cc(NC(=O)c3cnc(C(F)F)cn3)ccc2F)Cn2nc(C#N)cc2C(N)=N1
8.92	C[C@@]1(c2cc(NC(=O)c3cnc(OCF)cn3)ccc2F)Cn2nc(C#N)cc2C(N)=N1
